In brackets after ≈: the same amount, converted by molar mass.
Columns and labels:
Candida = experiment: Action in candidosis of mice; format: in vivo; settings: mice SPF-CF1; 100 mg/kg orally one hour before and seven hours after i.v. infection; survivors on 6th day
Procedure: b. Candidosis of mice Mice of type SPF-CF1 were infected intravenously with 1-2 × 10^6 of logarithmically growing Candida cells which were suspended in physiological sodium chloride solution. One hour before and seven hours after the infection, the animals were treated orally, in each case with 100 mg of the preparations/kg of body weight. Untreated animals died of the infection 3 to 6 days after the infection. The survival rate on the 6th day after infection was about 5% in the case of untreated control animals.

Penicillium commune = experiment: Antimycotic activity in vitro (series dilution test), Penicillium commune; format: cell-based; settings: growth no longer detectable, Sabourauds' milieu d'epreuve, 28° C, 24 to 96 hours, read-out: Minimum inhibitory concentration
Candida albicans = experiment: Antimycotic activity in vitro (series dilution test), Candida albicans; format: cell-based; settings: growth no longer detectable, Sabourauds' milieu d'epreuve, 28° C, 24 to 96 hours, read-out: Minimum inhibitory concentration
[1] = tested on: Trichophyton mentagrophytes; experiment: Antimycotic activity in vitro (series dilution test), Trichophyton mentagrophytes; format: cell-based; settings: growth no longer detectable, Sabourauds' milieu d'epreuve, 28° C, 24 to 96 hours, read-out: Minimum inhibitory concentration

In the case of `CC(C)(C)C(O)C(Cn1cncn1)Oc1cc(Cl)ccc1Cl` (stereo not drawn) [Example 7], the “Action in candidosis of mice” value (Candida) is reported as “++++ (good action = 80% survivors on the 6th day after infection)”.
`Cc1cccc(OC(Cn2cncn2)C(O)C(C)(C)C)c1C` (stereo not drawn) gave an MIC (Penicillium commune) of 64 µg/mL (≈ 211 µM) and an MIC (Candida albicans) of 64 µg/mL (≈ 211 µM).
`CC(C)(C)C(O)C(Cn1cncn1)Oc1cccc(Cl)c1` (stereo not drawn) gave an MIC (Penicillium commune) greater than 64 µg/mL, an MIC [1] greater than 64 µg/mL and an MIC (Candida albicans) greater than 64 µg/mL.
`CC(C)(C)C(O)C(Cn1cncn1)Oc1ccccc1Cl` (stereo not drawn) [Example 4] was tested, and the “Action in candidosis of mice” value (Candida) was “++++ (good action = 80% survivors on the 6th day after infection)”.
`CC(C)(C)C(O)C(Cn1cncn1)Oc1ccc(Cl)cc1Cl` (stereo not drawn) was tested, and the MIC (Penicillium commune) was greater than 64 µg/mL and the MIC [1] was 4 µg/mL (≈ 11.6 µM).
`CC(C)(C)C(O)C(Cn1cncn1)Oc1ccccc1Cl` (stereo not drawn) [drawing 4] showed an MIC (Penicillium commune) greater than 64 µg/mL and an MIC [1] of 32 µg/mL (≈ 103 µM).
`CC(C)(C)C(O)C(Cn1cncn1)Oc1ccc(F)cc1` (stereo not drawn) was tested, and the MIC (Penicillium commune) was 64 µg/mL (≈ 218 µM) and the MIC [1] was 64 µg/mL (≈ 218 µM).
In the case of `CC(C)(C)C(O)C(Cn1cncn1)Oc1cc(Cl)ccc1Cl` (stereo not drawn) [drawing 6], the MIC (Penicillium commune) is reported as greater than 64 µg/mL and the MIC [1] is reported as 32 µg/mL (≈ 93 µM).

Reference: patent publication US3993765A, “1-Propyl-triazolyl antimycotic compositions and methods of treating mycoses” (Bayer Aktiengesellschaft, priority 1973, dated 1976)
